Experiments:
Sigma receptor [1] = assay: Sigma receptor relative bond affinity (RBA), 3H PPP displacement, rat brain membranes; type: binding; settings: for Relative bond affinity (RBA) for the Sigma receptor, Brain (rat): 3 nM 3H PPP, haloperidol set equal to 100; for Displacement of 3H PPP from the Sigma receptor (in words): also evaluated on testicles
Method: (§1) The relative bond affinity was evaluated for preparations of rat brain and testicle membranes.
(§2) Male Sprague-Dawley rats originating from Iffa Credo and weighing approximately 200 g were used. The animals were scarified by decapitation and the brain and testicles were removed and homogenized in 10 to 25 volumes of 50 mM Tris-HCl buffer (pH 7.7) at 4° C. using an Ultrathurax. The homogenates were centrigued at 30,000 g for 15 minutes at 4° C. and the pellets were washed 3 times by resuspension in the same buffer and centrifugation under the same conditions. The membranes obtained in this way were stored at −80° C.
(§3) The marker of the sigma receptors used was ^3H PPP (propyl-3-(propyl-3-(3-hydroxyphenyl)-piperidine) of NEN having a specific activity of 3404 GBq/mmol. The membranes were suspended in the 50 mM Tris-HCl buffer, pH 8.0 to obtain a concentration of proteins of approximately 0.6 mg/ml for the testicles and 1 mg/ml for the brain. Aliquots of the homogenate were incubated for 90 minutes at 25° C. in a total volume of 0.5 ml with 3 nM of ^3H PPP in the presence of increasing concentrations of reference product (haloperidol) or of the products to be tested. At the end of the incubation, the 3H PPP bound to the membranes was separated from the free ^3H PPP by rapid filtration on Whatman GF/C filters pre-treated beforehand with 0.05% of polyethyleneimine. The precipitate was washed twice with 5 ml of Tris-HCl buffer and the radioactivity was counted after the addition of 20 ml of Aqualyte scintillating liquid (Baker).
(§4) The following two curves were drawn: percentage of bound tritiated marker 100×B/BO as a function of the logarithm of the concentration of unlabelled reference product or as a function of the logarithm of the concentration of unlabelled test product. The straight line of the following equation was determined:
(§5) BO=concentration of the bound tritiated marker in the absence of any unlabelled product.
B=concentration of the bound tritiated marker in the presence of a concentration X of unlabelled product.
Bmin=concentration of the bound tritiated marker in the presence of a large excess of the unlabelled reference product (5,000 nM).
The intersections of the straight line I50 and the curves allowed the evaluation of the concentrations of the unlabelled reference product (CH) and of the unlabelled test product (CX) which inhibited by 50% the specific binding of the tritiated marker on the receptor. The relative bond affinity (RBA) of the test product was determined by the equation:
The RBA of the haloperidol was arbitrarily set equal to 100.

Sigma receptor [2] = assay: Sigma receptor relative bond affinity (RBA), 3H PPP displacement, rat testicle membranes; type: binding; settings: 3 nM 3H PPP, haloperidol set equal to 100
Method: as §1, §2, §3, §4, §5
B=concentration of the bound tritiated marker in the presence of a concentration X of unlabelled product. […]

human spermatozoids = assay: Measurement of intracellular calcium in human spermatozoids (Fura2-AM fluorescence); type: cell-based
Method: The human sperm originated from healthy donors. […] The mobile spermatozoids were incubated for a minimum of 2 hours in the BWW/HSA capacitating medium and were then incubated at a concentration of 5-10×10^6/ml with Fura2-AM to a final concentration 2 μM at 37° C. for 45 minutes. After washing by centrifugation at 600 g for 10 minutes in. BWW without HSA, the spermatozoids were suspended at a concentration of 4×10^6/ml. The florescence signal was measured at 37° C. using a spectrofluorimeter at excitation wave lengths of 340 and 380 nm (PTIM 2001-Kontron) or at 340, 360 and 380 nm (Hitachi F 2000—B. Braun Science Tec.). The fluorescence emission was recorded at 505 nm. The progesterone or the products to be tested, dissolved in absolute ethanol, were added to the incubation medium at a final concentration of 0.1% of ethanol. When an antagonistic effect of the progesterone was sought, the product was added to the medium 2 minutes before the progesterone. At the end of the each dosage, 5 μM of ionomycin were added to the sample to measure the maximum fluorescence signal. […] These values allowed the intracellular concentration of calcium ([Ca^2+]i) to be calculated by the method described by Grunkiewicz et al. 1985, J. Biol. Chem., Vol. 260, pp. 3440-3450).

`C[C@H](NCCN(C)C)[C@@H]1CC[C@@H]2[C@H]3CCc4cc(O)ccc4[C@@H]3CC[C@]21C` [Example 1, (20S)(8α,9β,13α,14β,17α) 20-((dimethylamino)-ethyl)-amino-19-nor-Δ^1,3,5(10)-pregnatrien-3-ol] was tested, and the “Relative bond affinity (RBA) for the Sigma receptor, Brain (rat)” value (“Relative bond affinity (RBA) … Brain (rat)” for short) (Sigma receptor [1]) was 4.3, the “Displacement of 3H PPP from the Sigma receptor (in words)” value (Sigma receptor [1]) was “capable of displacing ^3H PPP” and the “Relative bond affinity (RBA) for the Sigma receptor, Testicle (rat)” value (shortened to “Relative bond affinity (RBA) … Testicle (rat)”) (Sigma receptor [2]) was 58.0. For the same molecule, the “[Ca2+]i relative to the basal level set equal to 1” value (human spermatozoids; 2 minutes pre-treatment with U 10^-5M + PROG. 10^-5M, Mean±SEM n=3) was 1.0 ± 0.0, the “[Ca2+]i relative to the basal level set equal to 1” value (human spermatozoids; 2 minutes pre-treatment with U 10^-6M + PROG. 10^-5M, Mean±SEM n=3) was 2.63 ± 0.57 and the “[Ca2+]i relative to the basal level set equal to 1” value (human spermatozoids; 2 minutes pre-treatment with U 10^-7M + PROG. 10^-5M, Mean±SEM n=3) was 4.26 ± 1.93. The “[Ca2+]i relative to the basal level set equal to 1” value (human spermatozoids; 2 minutes pre-treatment with U 10^-8M + PROG. 10^-5M, Mean±SEM n=3) was 3.33 ± 0.87, the “[Ca2+]i relative to the basal level set equal to 1” value (human spermatozoids; Pre-treatment 2 mn with U 10^-5M + PROG. 10^-5M, Mean±SEM n=8) was 0.95 ± 0.05 and the “Antagonistic effect on the progesterone-induced [Ca2+]i increase (in words)” value (human spermatozoids; Product U 10^-5M added 2 minutes before the progesterone) was “completely antagonized the effect of progesterone”. For the same molecule, the “[Ca2+]i relative to the basal level set equal to 1” value (human spermatozoids; U 10^-5M alone, Mean±SEM n=8) was 0.95 ± 0.05.

For `O=C(CCCN1CCC(O)(c2ccc(Cl)cc2)CC1)c1ccc(F)cc1` [Haloperidol], the “Relative bond affinity (RBA) … Brain (rat)” value (Sigma receptor [1]) was 100.0 and the “Relative bond affinity (RBA) … Testicle (rat)” value (Sigma receptor [2]) was 100.0.

With `CC(=O)[C@H]1CC[C@H]2[C@@H]3CCC4=CC(=O)CC[C@]4(C)[C@H]3CC[C@]12C` [Progesterone, reference compound] the “Relative bond affinity (RBA) … Brain (rat)” value (Sigma receptor [1]) was 0.7, the “Displacement of 3H PPP from the Sigma receptor (in words)” value (Sigma receptor [1]) was “capable of displacing ^3H PPP” and the “Relative bond affinity (RBA) … Testicle (rat)” value (Sigma receptor [2]) was 0.3. For the same molecule, the “[Ca2+]i relative to the basal level set equal to 1” value (human spermatozoids; PROG. 10^-5M alone, Mean±SEM n=3) was 3.67 ± 0.97, the “[Ca2+]i relative to the basal level set equal to 1” value (human spermatozoids; PROG. 10^-5M alone, Mean±SEM n=8) was 5.76 ± 0.84 and the “Effect on the intracellular calcium of human spermatozoids (in words)” value (human spermatozoids; progesterone 10^-5 M alone) was “induced a transitory increase of the [Ca^2+]i”.

From patent publication US6437157B1, “20-substituted steroids” (Hoechst Marion Roussel, priority 1994, dated 2002)
